In article PMC4318582, “Chemotherapy of Second Stage Human African Trypanosomiasis: Comparison between the Parenteral Diamidine DB829 and Its Oral Prodrug DB868 in Vervet Monkeys” (PLoS Neglected Tropical Diseases, 2015):
Several values for one entry are separate records, joined by “and”; a condition that tells them apart may be missing. Equal entries are not always repeated.

How the values were obtained:
[1] = tested on: T. b. rhodesiense KETRI 2537; test: Efficacy in KETRI vervet monkey model of second stage HAT; assay type: in vivo
Source text: The current study used the KETRI vervet monkey model of HAT, a model developed over 30 years ago through the experimental infection of vervet monkeys with T. b. rhodesiense. […] Trypanosomes were identified in peripheral blood first and cerebrospinal fluid (CSF) second, allowing the disease to be classified into an early (haemo-lymphatic) and a late (central nervous system [CNS]) stage, similar to the human disease. […] Monkey trypanosomal infections have been determined to be invariably fatal without therapeutic intervention, a characteristic also widely accepted as true for human sleeping sickness.
Parasitaemia and CSF parasitosis were monitored using established techniques for blood trypanosomes and CSF trypanosomes, respectively.
Due to a regulated freeze on acquisitions of new non-human primates, only six monkeys were available for the IM DB829 study. These animals were divided into three treatment groups, each consisting of one male and one female, to compare dose-responsiveness between consecutive- and alternate-day dosing. Monkeys were treated with 2.5 or 5 mg/kg/day for 5 consecutive days or with 5 mg/kg/day on alternating days for a total of 5 doses (Table 1).
Twelve additional monkeys were available for the oral DB868 efficacy study. These animals were, before infection, divided into three groups, each consisting of two males and two females. DB868 was administered orally to each group at 3, 10 or 20 mg/kg/day for 10 consecutive days (Table 2).
Parasitaemia post-infection was monitored daily, using ear-prick capillary blood, through the completion of DB868 and DB829 treatment. […] At 300 days post-LDD, monkeys were considered cured if they remained normal clinically and parasite-free in the blood and CSF. Pharmacokinetic outcomes were monitored for a minimum of 60 days post-LDD as described previously. […] Monkeys that relapsed, characterized by trypanosome recrudescence in the blood or CSF, were rescue-treated with melarsoprol.

[2] = tested on: T. b. rhodesiense STIB900; parameters: method as in PMID 19620327; conditions: read-out: in vitro IC50; cited from earlier work
[3] = IM 2.5mg/kg × 5 days, monkeys 546M, 693F
[4] = IM 5 mg/kg × 5 alternate days, monkeys 668M, 676F
[5] = IM 5 mg/kg × 5 days, monkeys 569F, 659M

## N=C(N)c1ccc(-c2ccc(-c3ccc(C(=N)N)cn3)o2)nc1 [DB829, 2,5-bis(5-amidino-2-pyridyl)furan]
[1]; IM 2.5mg/kg × 5 days
  Cured/treated: 2/2
[1]; [3]
  Final efficacy assessment at 300 days post-LDD of DB829: Cured
  Provisional efficacy at 100 days post-LDD of DB829: Cured
  Trypanosomes at EoT: Neg
[1]; IM 5 mg/kg × 5 alternate days
  Cured/treated: 2/2
[1]; [4]
  Final efficacy assessment at 300 days post-LDD of DB829: Cured
  Provisional efficacy at 100 days post-LDD of DB829: Cured
  Trypanosomes at EoT: Neg
[1]; IM 5 mg/kg × 5 days
  Cured/treated: 1/1
[1]; IM 5 mg/kg × 5 days, alternate-day dosing (28, 30, 30, 32, 34 and 36 DPI), monkeys 668M, 676F
  Time to initial clearance of trypanosomes from body fluids (blood and CSF): 1 days post-LDD
[1]; IM 5mg/kg × 5 days, consecutive-day dosing 28–32 DPI, monkeys 569F, 659M
  Time to initial clearance of trypanosomes from body fluids (blood and CSF): 1 days post-LDD
[1]; IM 5 mg/kg × 5 days, monkey 569F (659M withdrawn)
  Final efficacy assessment at 300 days post-LDD of DB829: Cured
[1]; [5]
  Provisional efficacy at 100 days post-LDD of DB829: Cured
  Trypanosomes at EoT: Neg
[1]; IM, monkeys 546M, 693F, Table 3 prints 5mg/kg × 5 days, consecutive-day dosing 28–32 DPI (text: 2.5 mg/kg/day)
  Time to initial clearance of trypanosomes from body fluids (blood and CSF): 4 days post-LDD and 7 days post-LDD
[1]; all IM DB829 regimens combined
  Final efficacy assessment at 300 days post-LDD of DB829, Overall Results (final combined cure rate): cured all monkeys and 5/5
  Provisional efficacy at 100 days post-LDD of DB829, Overall Results: 6/6
  Trypanosomes at EoT, Overall Results (provisional cure rate): 6/6
[2]
  IC50: 14 nM
